Results: PubChem BioAssay (NCI)
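Results reflect a 48-hour exposure of cells in 96-well plates to compound at five concentrations. GI50: concentration for 50% inhibition of growth. The concentration for full growth arrest is given as TGI.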

Experiments:
Experiment in all cases: DTP human tumour cell line panel, 48 h
[1] = tested on: IGROV1 ovarian
[2] = tested on: UACC-257 melanoma
[3] = tested on: SNB-75 CNS
[4] = tested on: ACHN renal
[5] = tested on: K-562 leukemia
[6] = tested on: MDA-MB-231 breast
[7] = tested on: LOX IMVI melanoma
[8] = tested on: SN12C renal
[9] = tested on: 786-0 renal
[10] = tested on: DU-145 prostate
[11] = tested on: NCI/ADR-RES ovarian
[12] = tested on: EKVX NSCLC
[13] = tested on: HOP-92 NSCLC
[14] = tested on: SK-MEL-2 melanoma
[15] = tested on: PC-3 prostate
[16] = tested on: MOLT-4 leukemia
[17] = tested on: BT-549 breast
[18] = tested on: U251 CNS
[19] = tested on: SW-620 colon
[20] = tested on: MDA-MB-435
[21] = tested on: NCI-H522 lung
[22] = tested on: CAKI-1 renal
[23] = tested on: SNB-19 CNS
[24] = tested on: SK-OV-3 ovarian
[25] = tested on: OVCAR-8 ovarian
[26] = tested on: UO-31 renal
[27] = tested on: UACC-62 melanoma
[28] = tested on: SF-295 CNS
[29] = tested on: TK-10 renal
[30] = tested on: SK-MEL-5 melanoma

CC1(C)C(N(O)C(=O)Nc2ccc(Cl)cc2)N(c2ccc(Cl)cc2)C(=O)N1CC(=O)N/N=C/C=C/c1ccc([N+](=O)[O-])o1 (stereo unspecified)
GI50 [1]: 2.46 µM
GI50 [2]: 1.58 µM
TGI [2]: 3.52 µM
GI50 [3]: 1.88 µM
TGI [3]: 7.11 µM
GI50 [4]: 3.16 µM
TGI [4]: > 100 µM
GI50 [5]: 1.57 µM
TGI [5]: 6.03 µM
GI50 [6]: 2.04 µM
TGI [6]: 7.57 µM
GI50 [7]: 1.56 µM
TGI [7]: 3.04 µM
GI50 [8]: 1.73 µM
TGI [8]: 9.73 µM
GI50 [9]: 2.75 µM
TGI [9]: 10.3 µM
GI50 [10]: 1.85 µM
TGI [10]: 4.07 µM
GI50 [11]: > 100 µM
TGI [11]: > 100 µM
GI50 [12]: 3.17 µM
TGI [12]: > 83.4 µM
GI50 [13]: 0.522 µM
TGI [13]: 2.31 µM
GI50 [14]: 0.946 µM
TGI [14]: 4.42 µM
GI50 [15]: 0.679 µM
GI50 [16]: 0.804 µM
TGI [16]: 4.47 µM
GI50 [17]: 1.6 µM
TGI [17]: 5.19 µM
GI50 [18]: 1.57 µM
TGI [18]: > 20.7 µM
GI50 [19]: 1.31 µM
TGI [19]: 3.52 µM
GI50 [20]: 2.61 µM
TGI [20]: 10.9 µM
GI50 [21]: 2.23 µM
TGI [21]: > 21.3 µM
GI50 [22]: > 23.2 µM
TGI [22]: > 100 µM
GI50 [23]: 2.27 µM
TGI [23]: 6.73 µM
GI50 [24]: 4.48 µM
TGI [24]: > 100 µM
GI50 [25]: 1.86 µM
GI50 [26]: 2.64 µM
TGI [26]: > 20.8 µM
GI50 [27]: 1.35 µM
TGI [27]: 3.91 µM
GI50 [28]: 2.55 µM
TGI [28]: > 100 µM
GI50 [29]: 4.06 µM
TGI [29]: > 100 µM
GI50 [30]: 1.32 µM
